Test [1] relates to PMM2-CDG and healthy fibroblasts. The experiment in a line: Metabolomic profiling (LC/MS, GC/MS) of fibroblasts treated with epalrestat. In kind it is cell-based, human. How it is done:
Patient (P1-P6) and control fibroblasts were obtained by a skin punch biopsy. Fibroblasts were maintained in low glucose DMEM (Gibco) supplemented with 10% FBS in an incubator at 37 °C, 5% CO2, no longer than two months or until they reached passage 15 to avoid senescence. Routine mycoplasma testing was performed.
Briefly, 15,000 fibroblasts were plated in 1.5 mL DMEM (Gibco, 5.5 mM glucose, 2 mM glutamine, 10% FBS) per well in two 6-well plates. The medium change was performed on day 2 and day 4. On day 6, the medium was removed, cells were washed with ice-cold 0.9% NaCl (Sigma) (physiological solution) and 250 μL of extraction buffer (80% MeOH, IS) was added to the cells. Next, cells were scraped and the cell extracts transferred to 1.5 mL Eppendorf tubes and placed overnight at −80 °C. Next, samples were centrifuged at 15,000 rpm, 4 °C, 20 minutes. The supernatant was transferred to a vial for direct analysis by LC/MS, while 100 μL of 200 mM NaOH was added to the (protein) pellet. Pellets were incubated at 95 °C for 30 minutes after which they were centrifuged at 5,000 rpm, 4 °C, 10 minutes. Supernatant was used to determine protein concentration by BCA protein assay kit (Pierce).
(§1) Fibroblasts were plated in 6-well plates for LC/MS and T75 flasks for GC/MS analysis as described above. After 24 hours, medium was removed and cells washed with PBS. Then, DMEM containing 5.5 mM glucose, 2 mM glutamine, and 10% dialyzed FBS was added. Epalrestat was freshly prepared and fibroblasts were supplemented with 10 μM epalrestat daily. After 48 hours media was changed, and 48 hours after that, metabolites were extracted and measured by both LC/MS and GC/MS. Zebrafish embryos were genotyped at 2 days post fertilization (dpf), and were treated by adding the epalrestat (solubilized in DMSO) directly into the embryo media at 5 dpf. Control embryos were similarly treated with DMSO alone. Embryos were harvested for metabolic analyses 24 hours posttreatment. The final concentration of DMSO was equivalent between control and treatment, never exceeding 0.5%.
An ion-pairing liquid chromatography column (C18) was used to separate 10 μL of sample, after which the metabolites were resolved on a Thermo Fisher Q-Exactive Hybrid Quadrupole-Orbitrap Mass Spectrometer (negative ion mode). The ESI settings were as follows: 50 sheet gas flow rate, auxiliary gas flow rate 15, spray voltage of 4 kV, S-lens RF level of 60, and the capillary temperature at 350 °C. A full scan (resolution 140,000 at 200 m/z, AGC at 3 e6, 512 ms ion fill time, and 70-850 m/z scan range) was performed. The metabolites were identified according to their elution time and m/z ratios by using in-house metabolite standard library and El-Maven v0. 12.0/Polly™ Labeled LC-MS Workflow or Thermo Fisher Xcalibur software. The correction of naturally occurring carbon isotopes was also performed. Relative metabolite abundances were normalized to the internal standard and protein content.
For GC/MS measurements of hexose-P, hexose-bisphosphates, hexose and polyols, fibroblasts were cultured in a similar fashion as for LC/MS with the following adjustments: 1) an appropriate number of fibroblasts was plated in T75 flasks instead of 6-well plates to ensure the optimal amount of metabolite concentration necessary for GC/MS; 2) metabolites were extracted from cells with 2 mL 80% MeOH, IS and the supernatant was transferred to a fresh 2 mL Eppendorf tube. Standards containing metabolites of interest were prepared simultaneously and dried overnight together with cellular extracts by vacuum centrifugation at 4 °C. The following day, 20 μL of methoxyamine (MOX) (Sigma Aldrich) was added to the samples and they were incubated for 90 minutes at 37 °C. Next, 60 μL of N,O-bis(trimethylsilyl)trifluoroacetamide (TMS) (Sigma Aldrich) was added to the samples, which were then incubated at 60 °C for 30 minutes. Samples were kept overnight in a dry and cool place to allow further derivatization with TMS. […]

The subject of test [2] is pmm2 mutant zebrafish. As to the kind of experiment: Metabolomic profiling of zebrafish treated with epalrestat. In kind it is in vivo. To be noted: 5 dpf embryos, single dose 10 μM or 40 μM, 24 hours. How it is done:
Animals were maintained according to standard protocols. The zebrafish strains were obtained from the Zebrafish International Resource Center (ZIRC, Eugene, OR). Pmm2sa10150 mutant zebrafish were established as described elsewhere (Klaver et al., JCI Insight, 6(24):e153474 (2021)).
10 embryos per sample were homogenized by sonication in extraction buffer (80% MeOH, IS). The metabolites were then precipitated at −80 °C overnight, after which the samples were centrifuged at 15,000 rpm, 20 minutes, 4 °C. Next, the supernatant was transferred to a fresh Eppendorf tube. The samples were centrifuged again at 15,000 rpm, 20 minutes, 4 °C to remove any leftover impurities and transferred to a fresh MS vial. Finally, the samples were analyzed by LC/MS.
as §1, with “Control embryos were similarly treated with DMSO alone. Embryos were harvested for metabolic analyses 24 hours posttreatment. The final concentration of DMSO was equivalent between control and treatment, never exceeding 0.5%.” left out

Setting [3] is: 10 μM daily, patient fibroblasts.

Each structure is given as a SMILES string. Entries after “also recorded” stand apart in the source; their conditions may differ.

In the case of `CC(/C=C1\SC(=S)N(CC(=O)O)C1=O)=C\c1ccccc1` [epalrestat], in test [1] (10 μM daily), the CMP-sialic acid abundance result is “increased”, the UDP-HexNAc abundance result was “increased”, the UDP-hexose abundance result is listed as “increased” and the glucose-1-P abundance result is listed as “increased”. Besides, in test [1] (10 μM daily), the hexosamine-P abundance entry was “increased”, the hexose-P abundance entry was “increased”, the pentose-P abundance entry is listed as “increased” and the sedoheptulose-7-P abundance entry is “increased”. The “Glc-1,6-P2 abundance” value in test [1] (10 μM daily, PMM2-CDG fibroblasts) is reported as “increased; also recorded: significantly increase”. In addition, in test [1] (10 μM daily, intracellular), the mannitol abundance entry is recorded as “reduced in the majority of patient fibroblasts” and the sorbitol abundance entry was “significantly reduced; also recorded: significantly decreased”. In addition, the overall polyol pool entry in test [1] (10 μM daily, patient and control cell lines, dialyzed FBS) is on record as “reduced; also recorded: significantly decreased”. Also, in test [1] (setting [3]), the GDP-mannose abundance entry was “increased; also recorded: significantly increase”, the man-1-P abundance entry is “increased; also recorded: significantly increase” and the mannose-6-P abundance result was “increased; also recorded: significantly increase”. The “GDP-mannose levels vs controls” value in test [1] (patient fibroblasts, epalrestat alone) was “never reached the same levels as the ones seen in controls”. Further, in test [2], the GDP-mannose level entry is “increased” and the polyol levels result is “reduced”.
